Test results taken from patent US8906908B2, “Hydroxybupropion analogues for treating drug dependence” (priority 2010, dated 2014).
Like-named read-outs stand apart in the source and are kept apart here.

Legend:
α3β4*-nAChR = molecular target: T1, α3β4*-nAChR (Homo sapiens, UniProt P30926+P32297); test: 86Rb+ efflux nAChR functional assay, SH-SY5Y cells; format: cell-based; settings: EC80-EC90 carbamylcholine; SH-SY5Y; parentheses = S.E.M. as multiplication/division factor; read-out: nAChR inhibition IC50 α3β4±
T1 construct: other: EC80-EC90 carbamylcholine; SH-SY5Y; parentheses = S.E.M. as multiplication/division
Excerpt: (§1) Cell Lines and Culture: Human embryonic kidney (HEK-293) cells stably expressing human DAT, NET or SERT were maintained as previously described in Eshleman, A. J.; Carmolli, M.; Cumbay, M.; Martens, C. R.; Neve, K. A.; Janowsky, A., J. Pharmacol. Exp. Ther. 1999, 289, (2), 877-885. Use was made of several human cell lines that naturally or heterologously express specific, functional, human nAChR subtypes. Cells of the TE671/RD line naturally expresses muscle-type nAChR (a1β1γδ- or α1*-nAChR), and SH-SY5Y neuroblastoma cells naturally expresses autonomic α3β4*-nAChRs (containing α3, β4, probably α5, and sometimes β2 subunits). Different clones of SH-EP1 epithelial cell lines have been engineered to heterologously express either α4β2-nAChR, which are thought to be the most abundant, high affinity nicotine-binding nAChR in mammalian brain, or α4β4-nAChR, another possible brain nAChR subtype (SH-EP1-hα4β2 or α4β4 cells, respectively). These cells were maintained as low passage number (1-26 from our frozen stocks) cultures to ensure stable expression of native or heterologously-expressed nAChR as previously described (see Lukas, R. J.; Fryer, J. D.; Eaton, J. B.; L., G. C., Some methods for studies of nicotinic acetylcholine receptor pharmacology, in Nicotinic receptors and the Nervous System, Levine, E. D., Ed. CRC Press: Boca Raton, 2002; pp 3-27, incorporated herein by reference in its entirety). Cells were passaged once weekly by splitting just-confluent cultures 1/300 (TE671/RD), 1/5 (SH-SY5Y), or 1/20 (transfected SH-EP1) in serum-supplemented medium to maintain log-phase growth.
After cells had adhered (generally overnight, but no sooner than 4 h later), the medium was removed and replaced with 250 μL per well of complete medium supplemented with ˜350,000 cpm of ^86Rb^+ (PerkinElmer Life and Analytical Sciences, Boston, Mass.) and counted at 40% efficiency using Cerenkov counting (TriCarb 1900 liquid scintillation analyzer[…]; PerkinElmer Life Sciences).
After at least 4 h and typically overnight, ^86Rb^+ efflux was measured using the “flip-plate” technique. See Lukas, R. J.; Fryer, J. D.; Eaton, J. B.; L., G. C., Some methods for studies of nicotinic acetylcholine receptor pharmacology, in Nicotinic receptors and the Nervous System, Levine, E. D., Ed. CRC Press: Boca Raton, 2002; pp 3-27, incorporated herein by reference in its entirety). Briefly, after aspiration of the bulk of ^86Rb^+ loading medium from each well of the “cell plate,” each well containing cells was rinsed 3× with 2 mL of fresh ^86Rb^+ efflux buffer (130 mM NaCl, 5.4 mM KCl, 2 mM CaCl2, 5 mM glucose, 50 mM HEPES, pH 7.4) to remove extracellular ^86Rb^+. Following removal of residual rinse buffer by aspiration, the flip-plate technique was used again to simultaneously introduce 1.5 mL of fresh efflux buffer containing drugs of choice at indicated final concentrations from a 24-well “efflux/drug plate” into the wells of the cell plate. After a 5 min incubation, the solution was “flipped” back into the efflux/drug plate, and any remaining buffer in the cell plate was removed by aspiration. Cells remaining in the cell plate were lysed and suspended by addition of 1.5 mL of 0.1 M NaOH, 0.1% sodium dodecyl sulfate to each well.
Similarly, the sum of ^86Rb^+ in cell plates and efflux/drug plates also determined the efficiency of ^86Rb^+ loading (the percentage of applied ^86Rb^+ actually loaded into cells).
Specific efflux was then taken as the difference in control samples between total and non-specific ^86Rb^+ efflux. Any intrinsic agonist activity of test drugs was ascertained using samples containing test drug only at different concentrations and was normalized, after subtraction of non-specific efflux, to specific efflux in test drug-free, control samples.

[1] = molecular target: T2, human DA transporters [(h)DAT] (Homo sapiens, UniProt Q01959); test: Inhibition of [3H]dopamine uptake into HEK293 cells stably expressing hDAT; format: cell-based; settings: HEK293-hDAT; mean ± standard error of three independent experiments; read-out: monoamine uptake inhibition IC50 [3H]DA
T2 construct: expressed in transfected cells; host or cells: HEK-293
Excerpt: as §1
(§2) See, for example, Damaj, M. I.; Carroll, F. I.; Eaton, J. B.; Navarro, H. A.; Blough, B. E.; Mirza, S.; Lukas, R. J.; Martin, B. R., Mol. Pharmacol. 2004, 66, (3), 675-682 and Eshleman, A. J.; Carmolli, M.; Cumbay, M.; Martens, C. R.; Neve, K. A.; Janowsky, A., J. Pharmacol. Exp. Ther. 1999, 289, (2), 877-885, both incorporated by reference herein in their entireties.

[2] = test system: Male Institute of Cancer Research (ICR) mice; test: Hot-plate test, blockade of nicotine-induced antinociception; format: in vivo; settings: pretreatment 15 min before nicotine 2.5 mg/kg s.c., tested 5 min after nicotine
Excerpt: (§3) Animals: Male Institute of Cancer Research (ICR) mice (weighing 20-25 g) obtained from Harlan (Indianapolis, Ind.) were used throughout the study. Animals were housed in an Association for Assessment and Accreditation of Laboratory Animal Care-approved facility, were placed in groups of six, and had free access to food and water. Studies were approved by the Institutional Animal Care and Use Committee of Virginia Commonwealth University.
Hot-Plate Test: Mice were placed into a 10-cm wide glass cylinder on a hot plate (Thermojust Apparatus) maintained at 55° C. for assessment of pain responses mediated at supraspinal levels. To minimize tissue damage, a maximum exposure to the hot plate 40 s was imposed. Measures of control latencies (time until the animal jumped or licked its paws; typically 8-12 s) were done twice for stimuli applied at least 10 min apart for each mouse. Antinociceptive responses after test drug administrations were determined and calculated as the % MPE, where % MPE=[(test latency in s−control latency in s)/(40 s−control latency in s)×100]. Groups of 8 to 12 animals were used for each drug condition. […] The animals were then tested 5 min after administration of a subcutaneous dose of 2.5 mg/kg nicotine.

[3] = test system: Male Institute of Cancer Research (ICR) mice; test: Body temperature, antagonism of nicotine-induced hypothermia; format: in vivo; settings: pretreatment 15 min before nicotine 2.5 mg/kg s.c., tested 30 min after nicotine
Procedure: as §3
Body Temperature: Rectal temperature was measured by a thermistor probe (inserted 24 mm) and digital thermometer (YSI Inc., Yellow Springs, Ohio). Readings were taken just before and 30 min after subcutaneous injection of either saline or 2.5 mg/kg nicotine. The difference in rectal temperature before and after treatment was calculated for each mouse. The ambient temperature of the laboratory varied from 21 to 24° C. from day to day. […] The animals were then tested 30 min after administration of a subcutaneous dose of 2.5 mg/kg nicotine.

[4] = molecular target: T3, 5HT transporters [(h)SERT] (Homo sapiens, UniProt P31645); test: Inhibition of [3H]serotonin uptake into HEK293 cells stably expressing hSERT; format: cell-based; settings: read-out: monoamine uptake inhibition IC50 [3H]5HT
T3 construct: expressed in transfected cells; host or cells: HEK-293
Excerpt: as §1, §2

[5] = HEK293-hSERT, mean ± standard error of three independent experiments

T1 sequence (P32297 32-505): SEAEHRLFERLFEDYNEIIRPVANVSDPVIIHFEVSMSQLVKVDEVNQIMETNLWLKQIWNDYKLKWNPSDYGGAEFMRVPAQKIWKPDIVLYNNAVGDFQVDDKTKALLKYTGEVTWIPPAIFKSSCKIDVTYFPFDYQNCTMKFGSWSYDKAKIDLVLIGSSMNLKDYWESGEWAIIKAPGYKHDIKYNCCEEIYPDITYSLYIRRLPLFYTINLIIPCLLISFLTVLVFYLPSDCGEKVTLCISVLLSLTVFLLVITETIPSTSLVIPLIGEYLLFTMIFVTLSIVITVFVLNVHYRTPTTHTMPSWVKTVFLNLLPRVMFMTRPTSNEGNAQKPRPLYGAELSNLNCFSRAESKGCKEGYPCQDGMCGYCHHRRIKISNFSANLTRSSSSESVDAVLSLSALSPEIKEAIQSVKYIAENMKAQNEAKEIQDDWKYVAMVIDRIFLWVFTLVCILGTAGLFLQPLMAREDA
T1 sequence (P30926 22-498): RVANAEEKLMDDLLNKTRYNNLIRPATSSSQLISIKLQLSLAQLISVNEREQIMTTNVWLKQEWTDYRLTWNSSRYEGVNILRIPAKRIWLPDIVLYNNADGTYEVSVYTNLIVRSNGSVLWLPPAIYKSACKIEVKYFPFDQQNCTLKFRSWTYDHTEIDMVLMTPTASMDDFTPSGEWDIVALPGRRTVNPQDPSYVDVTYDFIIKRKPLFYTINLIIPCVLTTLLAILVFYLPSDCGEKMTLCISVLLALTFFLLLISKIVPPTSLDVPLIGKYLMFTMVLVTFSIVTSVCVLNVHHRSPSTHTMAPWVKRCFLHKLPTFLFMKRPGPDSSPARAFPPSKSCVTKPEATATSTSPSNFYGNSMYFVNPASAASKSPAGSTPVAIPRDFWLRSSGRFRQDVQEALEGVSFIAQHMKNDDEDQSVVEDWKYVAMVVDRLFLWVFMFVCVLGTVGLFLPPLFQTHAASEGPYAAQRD
T3 sequence (P31645 whole entry): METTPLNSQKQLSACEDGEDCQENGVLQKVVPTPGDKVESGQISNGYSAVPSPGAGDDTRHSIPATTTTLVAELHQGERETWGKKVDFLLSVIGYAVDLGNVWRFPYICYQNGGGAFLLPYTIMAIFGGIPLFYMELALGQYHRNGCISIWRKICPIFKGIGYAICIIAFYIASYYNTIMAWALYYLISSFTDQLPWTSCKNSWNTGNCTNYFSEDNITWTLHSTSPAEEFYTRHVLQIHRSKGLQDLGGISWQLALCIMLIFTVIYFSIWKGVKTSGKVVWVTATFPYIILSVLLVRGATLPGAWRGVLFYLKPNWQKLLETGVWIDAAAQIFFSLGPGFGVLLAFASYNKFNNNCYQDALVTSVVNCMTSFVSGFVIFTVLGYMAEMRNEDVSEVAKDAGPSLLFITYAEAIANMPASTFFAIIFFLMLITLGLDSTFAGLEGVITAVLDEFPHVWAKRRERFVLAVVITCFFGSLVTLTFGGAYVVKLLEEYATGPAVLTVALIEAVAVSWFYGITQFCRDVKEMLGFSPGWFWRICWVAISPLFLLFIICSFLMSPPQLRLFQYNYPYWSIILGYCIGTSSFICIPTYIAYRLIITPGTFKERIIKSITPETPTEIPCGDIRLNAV
T2 sequence (Q01959 whole entry): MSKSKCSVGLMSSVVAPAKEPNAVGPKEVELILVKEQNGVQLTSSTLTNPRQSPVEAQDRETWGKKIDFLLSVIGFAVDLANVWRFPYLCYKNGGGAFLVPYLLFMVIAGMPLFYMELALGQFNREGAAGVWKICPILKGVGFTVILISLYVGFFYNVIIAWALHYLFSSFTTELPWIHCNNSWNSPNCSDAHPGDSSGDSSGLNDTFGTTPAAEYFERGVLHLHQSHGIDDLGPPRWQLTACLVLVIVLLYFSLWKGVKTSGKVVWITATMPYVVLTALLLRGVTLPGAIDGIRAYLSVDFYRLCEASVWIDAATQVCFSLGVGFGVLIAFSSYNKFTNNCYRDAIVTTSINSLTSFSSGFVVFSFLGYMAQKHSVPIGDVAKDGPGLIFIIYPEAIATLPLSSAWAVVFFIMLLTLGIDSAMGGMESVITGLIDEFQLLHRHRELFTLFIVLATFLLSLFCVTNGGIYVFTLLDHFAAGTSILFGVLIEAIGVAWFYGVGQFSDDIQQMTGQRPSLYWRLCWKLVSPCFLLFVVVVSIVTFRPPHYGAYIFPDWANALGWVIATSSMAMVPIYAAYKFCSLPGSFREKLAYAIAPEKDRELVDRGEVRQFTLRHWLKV

SMILES: C[C@@H]1NC(C)(C)CO[C@@]1(O)c1cccc2ccccc12 [Compound 4q, (2S,3S)-2-(Naphthalen-1-yl)-3,5,5-trimethylmorpholin-2-ol]
- IC50 (α3β4*-nAChR): 5.2 µM
- IC50 [1]: 10 µM
- AD50 Hot-plate [2]: IA (IA: AD50 > 15 mg/kg)
- AD50 Hypothermia [3]: IA (IA: AD50 > 15 mg/kg)
- IC50 [4]: 1.56 ± 0.215 µM

SMILES: C[C@@H]1NC(C)(C)CO[C@@]1(O)c1ccc2ccccc2c1 [Compound 4r, (2S,3S)-2-(Naphthalen-2-yl)-3,5,5-trimethylmorpholin-2-ol]
- IC50 (α3β4*-nAChR): 2 µM
- IC50 [1]: 0.453 µM
- AD50 Hot-plate [2]: IA (IA: AD50 > 15 mg/kg)
- AD50 Hypothermia [3]: IA (IA: AD50 > 15 mg/kg)
- IC50 [4]: 0.334 ± 0.042 µM

SMILES: C[C@@H]1N(C)C(C)(C)CO[C@@]1(O)c1cccc(Cl)c1 [Compound 4u, (2S,3S)-2-(3-Chlorophenyl)-3,4,5,5-tetramethylmorpholin-2-ol]
- IC50 (α3β4*-nAChR): 6.5 µM
- IC50 [1]: 3.4 ± 0.6 µM
- AD50 Hot-plate [2]: IA (IA: AD50 > 15 mg/kg)
- AD50 Hypothermia [3]: IA (IA: AD50 > 15 mg/kg)
- IC50 [4, 5]: > 10 µM

SMILES: C[C@@H]1N(C)C(C)(C)CO[C@@]1(O)c1ccc(Cl)cc1 [Compound 4v, (2S,3S)-2-(4-Chlorophenyl)-3,4,5,5-tetramethylmorpholin-2-ol]
- IC50 (α3β4*-nAChR): 4.6 µM
- IC50 [1]: 2.87 ± 0.82 µM
- AD50 Hot-plate [2]: IA (IA: AD50 > 15 mg/kg)
- AD50 Hypothermia [3]: IA (IA: AD50 > 15 mg/kg)
- IC50 [4, 5]: 6.48 ± 1.28 µM
